Test results as given in patent US20250276979A1, “SARS-COV2 MAIN PROTEASE INHIBITORS” (Gilead Sciences, Inc., priority 2024, published 2025).
pEC50: −log10 of the molar value.

What follows are compounds tested on SARS-CoV-2-NLuc in A549-hACE2 cells (assay: microbe, parasite or virus in culture). Conditions: Severe acute respiratory syndrome coronavirus 2, 48 h, read-out: MPro EC50.
Format: cell-based

Compound | pEC50
O=C1C[C@H](n2c(=O)[nH]c3cc(-c4ccccc4Cl)sc3c2=O)CCCN1 (single isomer, unassigned) [Example 21] | 7.65
O=C1C[C@@H](n2c(=O)[nH]c3cc(-c4ccccc4Cl)sc3c2=O)CCCN1 (single isomer, unassigned) [Example 22] | 6.81
COc1ccc(Cl)c(-c2cc3[nH]c(=O)n([C@@H]4CCCNC(=O)C4)c(=O)c3s2)c1 (single isomer, unassigned) [Example 23] | 7.90
COc1ccc(Cl)c(-c2cc3[nH]c(=O)n([C@H]4CCCNC(=O)C4)c(=O)c3s2)c1 (single isomer, unassigned) [Example 24] | 6.85

Same assay, conditions: Severe acute respiratory syndrome coronavirus 2, 48 h; read-out: MPro EC50

Compound | pEC50
COc1cc(-c2cc3[nH]c(=O)n([C@@H]4CC(=O)NC[C@@H](C)C4)c(=O)c3s2)c(Cl)cc1F (single isomer, unassigned) [Example 53] | 7.47
COc1cc(-c2cc3[nH]c(=O)n([C@@H]4CC(=O)NC[C@H](C)C4)c(=O)c3s2)c(Cl)cc1F (single isomer, unassigned) [Example 54] | 7.69
O=C1CC(n2c(=O)[nH]c3cc(-c4ccccc4Cl)sc3c2=O)CCN1 (stereo not shown) [Example 1, 6-(2-chlorophenyl)-3-(2-oxopiperidin-4-yl)thieno[3,2-d]pyrimidine-2,4(1H,311)-dione] | 6.59
O=C1C[C@H](n2c(=O)[nH]c3cc(-c4ccccc4Cl)sc3c2=O)CN1 [Example 2, 6-(2-chlorophenyl)-3-[(3S)-5-oxopyrrolidin-3-yl]-1H-thieno[3,2-d]pyrimidine-2,4-dione] | 4.45
O=C1C[C@@H](n2c(=O)[nH]c3cc(-c4ccccc4Cl)sc3c2=O)CN1 [Example 3, 6-(2-chlorophenyl)-3-[(3R)-5-oxopyrrolidin-3-yl]-1H-thieno[3,2-d]pyrimidine-2,4-dione] | 5.17
O=C1C[C@H](n2c(=O)[nH]c3cc(-c4ccccc4Cl)sc3c2=O)CCN1 [Example 4, (R)-6-(2-chlorophenyl)-3-(2-oxopiperidin-4-yl)thieno[3,2-d]pyrimidine-2,4(1H,3H)-dione] | 6.01
O=C1C[C@@H](n2c(=O)[nH]c3cc(-c4ccccc4Cl)sc3c2=O)CCN1 [Example 5, (S)-6-(2-chlorophenyl)-3-(2-oxopiperidin-4-yl)thieno[3,2-d]pyrimidine-2,4(1H,3H)-dione] | 7.03
O=C1C[C@H](n2c(=O)[nH]c3cc(-c4ccccc4Cl)ccc3c2=O)CCN1 [Example 6, (R)-7-(2-chlorophenyl)-3-(2-oxopiperidin-4-yl)quinazoline-2,4(1H,3H)-dione] | 4.52
COc1ccc(Cl)c(-c2cc3[nH]c(=O)n(C4CCNC(=O)C4)c(=O)c3s2)c1 (stereo not shown) [Example 7, 6-(2-chloro-5-methoxy-phenyl)-3-(2-oxo-4-piperidyl)-1H-thieno[3,2-d]pyrimidine-2,4-dione] | 7.11
O=C1CC(n2c(=O)[nH]c3cc(-c4ccccc4Cl)sc3c2=O)CCCN1 (stereo not shown) [Example 8, 6-(2-chlorophenyl)-3-(2-oxoazepan-4-yl)thieno[3,2-d]pyrimidine-2,4(1H,3H)-dione] | 7.21
O=C1CC(n2c(=O)[nH]c3cc(-c4ccccc4Cl)ccc3c2=O)CCCN1 (stereo not shown) [Example 9, 7-(2-chlorophenyl)-3-(2-oxoazepan-4-yl)quinazoline-2,4(1H,3H)-dione] | 5.31
Cc1cc(-c2cccc(Cl)c2-c2cc3[nH]c(=O)n(C4CCNC(=O)C4)c(=O)c3s2)cnn1 (stereo not shown) [Example 10, 6-(2-chloro-6-(6-methylpyridazin-4-yl)phenyl)-3-(2-oxopiperidin-4-yl)thieno[3,2-d]pyrimidine-2,4(1H,3H)-dione] | 5.26
Cc1cc(-c2cccc(Cl)c2-c2cc3[nH]c(=O)n(C4CCNC(=O)C4)c(=O)c3s2)cn2ncnc12 (stereo not shown) [Example 11, 6-(2-chloro-6-(8-methyl-[1,2,4]triazolo[1,5-a]pyridin-6-yl)phenyl)-3-(2-oxopiperidin-4-yl)thieno[3,2-d]pyrimidine-2,4(1H,3H)-dione] | 5.92
Cn1cc(-c2cccc(Cl)c2-c2cc3[nH]c(=O)n(C4CCNC(=O)C4)c(=O)c3s2)c(C(F)(F)F)n1 (stereo not shown) [Example 12, 6-(2-chloro-6-(1-methyl-3-(trifluoromethyl)-1H-pyrazol-4-yl)phenyl)-3-(2-oxopiperidin-4-yl)thieno[3,2-d]pyrimidine-2,4(1H,3H)-dione] | 6.12
O=C1CC(n2c(=O)[nH]c3cc(-c4c(Cl)cccc4-c4ccc5c(c4)OC(F)(F)O5)sc3c2=O)CCN1 (stereo not shown) [Example 13, 6-(2-chloro-6-(2,2-difluorobenzo[d][1,3]dioxol-5-yl)phenyl)-3-(2-oxopiperidin-4-yl)thieno[3,2-d]pyrimidine-2,4(1H,3H)-dione] | 6.81
COc1cc(-c2cc3[nH]c(=O)n(C4CCNC(=O)C4)c(=O)c3s2)c(Cl)cc1F (stereo not shown) [Example 14, 6-(2-chloro-4-fluoro-5-methoxyphenyl)-3-(2-oxopiperidin-4-yl)thieno[3,2-d]pyrimidine-2,4(1H,3H)-dione] | 6.50
COc1cnc(Cl)c(-c2cc3[nH]c(=O)n(C4CCNC(=O)C4)c(=O)c3s2)c1 (stereo not shown) [Example 15, 6-(2-chloro-5-methoxypyridin-3-yl)-3-(2-oxopiperidin-4-yl)thieno[3,2-d]pyrimidine-2,4(1H,3H)-dione] | 4.73

Compound | pEC50
COc1cc(-c2cc3[nH]c(=O)n([C@H]4CCNC(=O)C4)c(=O)c3s2)c(Cl)cc1F [Example 16, (S)-6-(2-chloro-4-fluoro-5-methoxyphenyl)-3-(2-oxopiperidin-4-yl)thieno[3,2-d]pyrimidine-2,4(1H,3H)-dione] | 6.65
COc1ccc(Cl)c(-c2cc3[nH]c(=O)n([C@H]4CCNC(=O)C4)c(=O)c3s2)c1 [Example 17, (S)-6-(2-chloro-5-methoxyphenyl)-3-(2-oxopiperidin-4-yl)thieno[3,2-d]pyrimidine-2,4(1H,3H)-dione] | 7.07
COc1cc(Cl)c(-c2cc3[nH]c(=O)n([C@H]4CCNC(=O)C4)c(=O)c3s2)cc1OC [Example 18, (S)-6-(2-chloro-4,5-dimethoxyphenyl)-3-(2-oxopiperidin-4-yl)thieno[3,2-d]pyrimidine-2,4(1H,3H)-dione] | 5.94
Cc1noc(C)c1-c1cc2[nH]c(=O)n([C@H]3CCNC(=O)C3)c(=O)c2s1 [Example 19, (S)-6-(3,5-dimethylisoxazol-4-yl)-3-(2-oxopiperidin-4-yl)thieno[3,2-d]pyrimidine-2,4(1H,3H)-dione] | 4.45
COc1ccc(Cl)c(-c2cc3[nH]c(=O)n(C4CCCNC(=O)C4)c(=O)c3s2)c1 (stereo not shown) [Example 20, 6-(2-chloro-5-methoxyphenyl)-3-(2-oxoazepan-4-yl)thieno[3,2-d]pyrimidine-2,4(1H,3H)-dione] | 7.25
COc1ccc(C#N)c(-c2cc3[nH]c(=O)n(C4CCCNC(=O)C4)c(=O)c3s2)c1 (stereo not shown) [Example 25, 2-(2,4-dioxo-3-(2-oxoazepan-4-yl)-1,2,3,4-tetrahydrothieno[3,2-d]pyrimidin-6-yl)-4-methoxybenzonitrile] | 6.36
COc1ccc(C#N)c(-c2cc3[nH]c(=O)n([C@H]4CCNC(=O)C4)c(=O)c3s2)c1 [Example 26, (S)-2-(2,4-dioxo-3-(2-oxopiperidin-4-yl)-1,2,3,4-tetrahydrothieno[3,2-d]pyrimidin-6-yl)-4-methoxybenzonitrile] | 5.67
COc1ccc(Cl)c(-c2ccc3c(=O)n(C4CCCNC(=O)C4)c(=O)[nH]c3c2)c1 (stereo not shown) [Example 27, 7-(2-chloro-5-methoxyphenyl)-3-(2-oxoazepan-4-yl)quinazoline-2,4(1H,3H)-dione] | 6.19
COc1ccc(Cl)c(-c2cc3c(s2)c(=O)n([C@@H]2CCCNC(=O)C2)c(=O)n3CC#N)c1 [Example 28, (R)-2-(6-(2-chloro-5-methoxyphenyl)-2,4-dioxo-3-(2-oxoazepan-4-yl)-3,4-dihydrothieno[3,2-d]pyrimidin-1(2H)-yl)acetonitrile] | 8.23
COc1ccc(Cl)c(-c2cc3c(s2)c(=O)n([C@@H]2CCCNC(=O)C2)c(=O)n3CCC#N)c1 [Example 29, (R)-3-(6-(2-chloro-5-methoxyphenyl)-2,4-dioxo-3-(2-oxoazepan-4-yl)-3,4-dihydrothieno[3,2-d]pyrimidin-1(2H)-yl)propanenitrile] | > 8.25
COc1cc(-c2cc3[nH]c(=O)n([C@@H]4CCCNC(=O)C4)c(=O)c3s2)c(Cl)cc1F [Example 30, (R)-6-(2-chloro-4-fluoro-5-methoxyphenyl)-3-(2-oxoazepan-4-yl)thieno[3,2-d]pyrimidine-2,4(1H,3H)-dione] | 8.11
COc1cc(-c2cc3[nH]c(=O)n([C@H]4CCCNC(=O)C4)c(=O)c3s2)c(Cl)cc1F [Example 31, (S)-6-(2-chloro-4-fluoro-5-methoxyphenyl)-3-(2-oxoazepan-4-yl)thieno[3,2-d]pyrimidine-2,4(1H,3H)-dione] | 7.29
COc1cc(-c2cc3c(s2)c(=O)n([C@@H]2CCCNC(=O)C2)c(=O)n3C)c(Cl)cc1F [Example 32, (R)-6-(2-chloro-4-fluoro-5-methoxyphenyl)-1-methyl-3-(2-oxoazepan-4-yl)thieno[3,2-d]pyrimidine-2,4(1H,3H)-dione] | 7.81
COc1cc(-c2cc3c(s2)c(=O)n([C@H]2CCCNC(=O)C2)c(=O)n3C)c(Cl)cc1F [Example 33, (S)-6-(2-chloro-4-fluoro-5-methoxyphenyl)-1-methyl-3-(2-oxoazepan-4-yl)thieno[3,2-d]pyrimidine-2,4(1H,3H)-dione] | 6.13
COc1cc(-c2cc3c(s2)c(=O)n([C@@H]2CCCNC(=O)C2)c(=O)n3CC#N)c(Cl)cc1F [Example 34, (R)-2-(6-(2-chloro-4-fluoro-5-methoxyphenyl)-2,4-dioxo-3-(2-oxoazepan-4-yl)-3,4-dihydrothieno[3,2-d]pyrimidin-1(2H)-yl)acetonitrile] | 8.52
COc1cc(-c2cc3c(s2)c(=O)n([C@H]2CCCNC(=O)C2)c(=O)n3CC#N)c(Cl)cc1F [Example 35, (S)-2-(6-(2-chloro-4-fluoro-5-methoxyphenyl)-2,4-dioxo-3-(2-oxoazepan-4-yl)-3,4-dihydrothieno[3,2-d]pyrimidin-1(2H)-yl)acetonitrile] | 7.07
